Data on three compounds can be found in patent publication US10508107B2, “Morpholine derivative” (Hoffmann-La Roche Inc., priority 2016, dated 2019).

In one series the target is hERG potassium channel (Homo sapiens (Human), UniProt Q12809). Nature of the series: hERG whole-cell patch-clamp in stably transfected CHO cells. Type of series: cell-based. As to conditions: for IC20: estimated based on the IC50 value; for selectivity ratio: human, CHO cells stably expressing hERG, pH 7.4, hERG IC20 / hTAAR1 EC50, read-out: hERG selectivity ratio versus hTAAR1 EC50; for IC50: patch-clamp, CHO cells, 36±1° C. The protocol:
The whole-cell patch-clamp technique was used to investigate the effects of the test items on hERG (human-ether-a-go-go related gene) potassium channels in stably transfected CHO cells near physiological temperature (36±1° C.). The effects of compounds on hERG K^+-current parameters were evaluated at 4 concentrations (0.3-3-30-300 μM) in at least 3 CHO cells stably expressing the hERG channel. For electrophysiological measurements cells were seeded onto 35 mm sterile culture dishes containing 2 ml culture medium without Hygromycin B. Cells were cultivated at a density that enabled single cells (without visible connections to neighbouring cells) to be measured. Cells were incubated at 37° C. in a humidified atmosphere with 5% CO2 (rel. humidity about 95%). The cells were continuously maintained in and passaged in sterile culture flasks containing nutrient mixture F-12 (DMEM/F-12 with L-Glutamine) supplemented with 10% foetal bovine serum and 10% penicillin/streptomycin solution. […] The 35 mm culture dishes upon which cells were seeded at a density allowing single cells to be recorded were placed on the dish holder of the microscope and continuously perfused (at approximately 1 ml/min) with the bath solution (sodium chloride 150 mM, potassium chloride 4 mM, calcium chloride 1.2 mM, magnesium chloride 1 mM, HEPES 10 mM, pH (NaOH) 7.4) at near physiological temperature (36±1° C.). After formation of a Gigaohm seal between the patch electrodes and individual hERG stably transfected CHO cells (pipette resistance range: 2.0 MΩ-7.0 Mω; seal resistance range: >1 Gω) the cell membrane across the pipette tip was ruptured to assure electrical access to the cell interior (whole-cell patch-configuration). In case the quality of the seal was poor, the process of seal formation was repeated with a different cell and a new pipette. […] This voltage protocol was run at least 10 times at intervals of 10 s. If current density was judged to be too low for measurement, another cell was recorded. […] During wash-in of the test item the voltage protocol indicated above was run continuously again at 10 s intervals until the steady-state level of block was reached. The four test item concentrations of the compound were applied sequentially to 3 cells in a cumulative manner. […] Based on the IC50 value the IC20 was estimated. Each concentration of the test item was analyzed in three experiments (n=3).

The target in another series is human DAT (Homo sapiens (Human), UniProt Q01959). Briefly: Binding to dopamine transporter (DAT) in vitro, [3H]-WIN35,428 SPA. As to conditions: for Ki: [3H]-WIN35,428 radioligand. The method, then:
Binding to dopamine transporter (DAT) in vitro. Human embryonic kidney (HEK) 293 cells (Invitrogen, Zug, Switzerland) stably transfected with human DAT were cultured. The cells were collected and washed three times with phosphate-buffered saline (PBS). The pellets were frozen at −80° C. The pellets were then resuspended in 400 ml of 20 mM HEPES-NaOH, pH 7.4, that contained 10 mM EDTA at 4° C. After homogenization with a Polytron (Kinematica, Lucerne,
Switzerland) at 10000 rotations per minute (rpm) for 15 s, the homogenates were centrifuged at 48000×g for 30 min at 4° C. Aliquots of the membrane stocks were frozen at −80° C. All assays were performed at least three times. The test compounds were diluted in […] of binding buffer (252 mM NaCl, 5.4 mM KCl, 20 mM Na2HPO4, 3.52 mM KH2PO4, pH 7.4) and 10 point dilution curves were made and transferred to 96-well white polystyrene assay plates (Sigma-Aldrich, Buchs, Switzerland). […] Twenty microliters of binding buffer alone in the assay plate defined the total binding, whereas binding in the presence of 10 μM indatraline defined nonspecific binding. Frozen DAT membrane stocks were thawed and resuspended to a concentration of approximately 0.04 mg protein/ml binding buffer (1:1 diluted in H2O) using a polytron tissue homogenizer. The membrane homogenates (40 μg/ml) were then lightly mixed for 5-30 min with polyvinyl toluene […] wheat germ agglutinin-coated scintillation proximity assay (WGASPA; Amersham Biosciences) beads at 7.7 mg beads/ml homogenate. One hundred thirty microliters of the membrane/bead mixture were added to each well of the assay plate that contained radioligand and test compounds (final volume in each well, 200 μl) to start the assay, which was incubated for approximately 2 h at room temperature with agitation. The assay plates were then counted in the PVT SPA counting mode of a Packard Topcount. […] Non-linear regression was used to fit the data to sigmoid curves and determine IC50 values for binding and uptake. Ki values for binding and uptake were calculated using the following Cheng-Prusoff equation: Ki=IC50/(1+[S]/Km).

The target of a further series is human TAAR1 (Homo sapiens (Human), UniProt Q96RJ0). Briefly: cAMP functional assay in HEK293 cells expressing human TAAR1. As to conditions: for hTAAR1 efficacy*: % agonist activity, β-phenylethylamine = 100% agonism; for EC50: cAMP, HEK293 cells expressing human TAAR1, read-out: hTAAR1 EC50. Type of series: cell-based. The protocol: For the construction of expression plasmids the coding sequences of human TAAR 1 were amplified from genomic DNA essentially as described by Lindemann et al.[14]. The Expand High Fidelity PCR System (Roche Diagnostics) was used with 1.5 mM Mg^2+ and purified PCR products were cloned into pCR2.1-TOPO cloning vector (Invitrogen) following the instructions of the manufacturer. PCR products were subcloned into the pIRESneo2 vector (BD Clontech, Palo Alto, Calif.), and expression vectors were sequence verified before introduction in cell lines.
HEK293 cells (ATCC # CRL-1573) were cultured essentially as described by Lindemann et al. (2005). For the generation of stably transfected cell lines HEK293 cells were transfected with the pIRESneo2 expression plasmids containing the TAAR coding sequences (described above) with Lipofectamine 2000 (Invitrogen) according to the instructions of the manufacturer, and 24 hrs post transfection the culture medium was supplemented with 1 mg/ml G418 (Sigma, Buchs, Switzerland). After a culture period of about 10 d clones were isolated, expanded and tested for responsiveness to trace amines (all compounds purchased from Sigma) with the cAMP Biotrak Enzyme immunoassay (EIA) System (Amersham) following the non-acetylation EIA procedure provided by the manufacturer.
cAMP measurements were performed as described previously (Revel et al., Proc. Natl. Acad. Sci. USA 2011, 108, 8485-8490). In brief, cells that expressed human TAAR1 were plated on 96-well plates (BIOCOAT 6640; Becton Dickinson, Allschwil, Switzerland) and incubated for 20 h at 37° C. Prior to stimulation of the cells with a broad concentration range of agonists for 30 min at 37° C., the cells were washed with PBS and preincubated with PBS that contained 1 mM 3-isobutyl-1-methylxanthine for 10 min at 37° C. and 5% CO2. Stimulation with 0.2% DMSO was set as the basal level, and the effect of 30 μM β-PEA was set as the maximal response. Subsequently, the cells were lysed, and cAMP assays were performed according to the manufacturer's instructions (cAMP kit; Upstate/Millipore, Schaffhausen, Switzerland). Finally, the plates were read with a luminometer (1420 Multilabel counter; PerkinElmer, Schwerzenbach, Switzerland), and the amount of cAMP was calculated. The results were obtained from at least three independent experiments. Experiments were run in duplicate or triplicate. EC50 values are presented as mean ±standard deviation (in μM).

Chain of human TAAR1 (Q96RJ0 whole entry): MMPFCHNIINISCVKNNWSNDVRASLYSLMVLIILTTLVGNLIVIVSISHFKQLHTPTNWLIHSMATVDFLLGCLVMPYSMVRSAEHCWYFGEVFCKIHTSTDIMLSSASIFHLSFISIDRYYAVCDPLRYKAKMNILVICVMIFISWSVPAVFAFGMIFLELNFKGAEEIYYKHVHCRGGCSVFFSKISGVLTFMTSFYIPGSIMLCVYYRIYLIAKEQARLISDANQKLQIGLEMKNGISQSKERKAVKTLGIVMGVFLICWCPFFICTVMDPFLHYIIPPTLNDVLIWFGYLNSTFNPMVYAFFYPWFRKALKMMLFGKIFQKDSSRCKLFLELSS
Chain of human DAT (Q01959 whole entry): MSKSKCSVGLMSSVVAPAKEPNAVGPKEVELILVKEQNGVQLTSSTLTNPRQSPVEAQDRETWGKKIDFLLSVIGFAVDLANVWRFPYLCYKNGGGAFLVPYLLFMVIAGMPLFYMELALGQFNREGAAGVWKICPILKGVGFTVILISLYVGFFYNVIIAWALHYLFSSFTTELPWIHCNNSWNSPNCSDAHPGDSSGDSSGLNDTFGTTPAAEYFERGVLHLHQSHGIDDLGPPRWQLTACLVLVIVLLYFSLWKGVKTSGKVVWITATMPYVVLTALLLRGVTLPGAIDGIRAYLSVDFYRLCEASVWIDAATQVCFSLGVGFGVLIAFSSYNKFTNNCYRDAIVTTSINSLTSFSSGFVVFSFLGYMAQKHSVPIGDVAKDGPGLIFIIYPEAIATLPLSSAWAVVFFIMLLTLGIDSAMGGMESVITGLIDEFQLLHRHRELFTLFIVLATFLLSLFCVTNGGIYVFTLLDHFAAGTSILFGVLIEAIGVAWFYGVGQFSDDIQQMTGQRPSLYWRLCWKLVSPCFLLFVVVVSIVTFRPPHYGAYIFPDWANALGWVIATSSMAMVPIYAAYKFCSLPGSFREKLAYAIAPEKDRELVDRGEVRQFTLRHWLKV
Chain of hERG potassium channel (Q12809 whole entry): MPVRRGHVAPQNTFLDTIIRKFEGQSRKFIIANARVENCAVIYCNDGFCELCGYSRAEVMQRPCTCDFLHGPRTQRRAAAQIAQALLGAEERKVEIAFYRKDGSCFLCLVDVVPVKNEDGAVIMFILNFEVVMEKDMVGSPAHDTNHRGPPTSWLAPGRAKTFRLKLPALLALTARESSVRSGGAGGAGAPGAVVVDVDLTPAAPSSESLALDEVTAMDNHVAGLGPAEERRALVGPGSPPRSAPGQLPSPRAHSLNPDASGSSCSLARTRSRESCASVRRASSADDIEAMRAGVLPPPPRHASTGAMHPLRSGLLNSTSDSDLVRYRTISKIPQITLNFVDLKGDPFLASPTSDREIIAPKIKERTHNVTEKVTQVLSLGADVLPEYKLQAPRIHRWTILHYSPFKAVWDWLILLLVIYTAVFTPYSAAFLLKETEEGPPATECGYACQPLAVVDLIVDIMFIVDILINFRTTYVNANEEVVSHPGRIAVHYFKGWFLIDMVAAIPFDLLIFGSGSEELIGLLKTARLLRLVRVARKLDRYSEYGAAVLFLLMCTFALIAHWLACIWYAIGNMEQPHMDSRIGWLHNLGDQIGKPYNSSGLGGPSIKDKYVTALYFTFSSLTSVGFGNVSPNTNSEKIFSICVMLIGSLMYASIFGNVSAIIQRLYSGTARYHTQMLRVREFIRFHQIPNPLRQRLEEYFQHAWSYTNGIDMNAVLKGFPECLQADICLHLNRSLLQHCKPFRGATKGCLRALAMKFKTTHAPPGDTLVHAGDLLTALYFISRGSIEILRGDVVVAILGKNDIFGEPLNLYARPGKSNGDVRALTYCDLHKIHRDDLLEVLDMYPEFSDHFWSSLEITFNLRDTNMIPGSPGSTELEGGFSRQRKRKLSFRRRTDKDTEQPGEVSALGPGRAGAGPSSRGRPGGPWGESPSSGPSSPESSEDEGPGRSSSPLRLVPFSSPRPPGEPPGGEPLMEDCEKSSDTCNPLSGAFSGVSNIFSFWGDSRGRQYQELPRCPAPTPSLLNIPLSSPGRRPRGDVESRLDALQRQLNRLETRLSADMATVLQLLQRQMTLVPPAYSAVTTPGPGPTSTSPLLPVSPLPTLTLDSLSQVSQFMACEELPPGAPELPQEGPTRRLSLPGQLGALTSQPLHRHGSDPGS

Take `O=C(Nc1ccc([C@H]2CNCCO2)cc1)c1csc(-c2ccccc2)n1` [Example 16, N-[4-[(2S)-Morpholin-2-yl]phenyl]-2-phenyl-1,3-thiazole-4-carboxamide]: at hERG potassium channel, the “Ratio hERG IC20/hTAAR1 EC50” value is 5, the IC20 is 3.35 µM, the selectivity ratio worked out at 5 and the IC50 is 8.98 µM. For the same compound, at human DAT, the “Ratio DAT Ki/hTAAR1 EC50” value is reported as 24 and the Ki is 16.2 µM. For the same compound, at human TAAR1, the “hTAAR1 efficacy*” value is 35% and the EC50 is 0.666 µM.
Regarding `O=C(Nc1ccc([C@H]2CNCCO2)cc1)c1ccc(OCC(F)(F)F)nc1` [Example 3, N-[4-[(2S)-Morpholin-2-yl]phenyl]-6-(2,2,2-trifluoroethoxy)pyridine-3-carboxamide], on hERG potassium channel, the “Ratio hERG IC20/hTAAR1 EC50” value is reported as 52, the IC20 was 1.97 µM, the selectivity ratio amounted to 52 and the IC50 came out at 9.84 µM. For the same compound, on human DAT, the “Ratio DAT Ki/hTAAR1 EC50” value is 462 and the affinity, expressed as Ki, was 17.4 µM. On human TAAR1, the “hTAAR1 efficacy*” value is 45% and the EC50 worked out at 0.0377 µM.
As to `Cc1nc(C(=O)Nc2ccc([C@H]3CNCCO3)cc2)cs1` [Example 19, N-[4-[(2S)-Morpholin-2-yl]phenyl]2-methyl-1,3-thiazole-4-carboxamide], at hERG potassium channel, the “Ratio hERG IC20/hTAAR1 EC50” value is given as 8, the IC20 was 8.32 µM, the selectivity ratio came to 8 and the IC50 is 60.5 µM. At human DAT, the “Ratio DAT Ki/hTAAR1 EC50” value is reported as 21 and the Ki is 21.9 µM. Also, at human TAAR1, the “hTAAR1 efficacy*” value was 32% and the EC50 turned out to be 1.02 µM.
